Measured values reported in publication PMC4700476, “Differential regulation by AMP and ADP of AMPK complexes containing different γ subunit isoforms” (Biochemical Journal, 2016).
Several values for one entry are separate records, joined by “and”; a condition that tells them apart may be missing. Identical values can stand only once.

Key:
[1] = molecular target: T1, AMPK γ1 complex (dephosphorylated, FLAG-tagged human γ1) (Homo sapiens, UniProt P54619+Q13131); experiment: Promotion of LKB1-dependent activation and Thr172 phosphorylation; type: biochemical; settings: 5 mM ATP
T1 construct: would have predominantly been the α1β2γ1, α1β2γ2 or α1β2γ3 complexes; expressed in transfected cells; host or cells: HEK-293 (Flp recombinase target site, tetracycline-inducible); anti-FLAG immunoprecipitate
T1 sequence (P54619 whole entry): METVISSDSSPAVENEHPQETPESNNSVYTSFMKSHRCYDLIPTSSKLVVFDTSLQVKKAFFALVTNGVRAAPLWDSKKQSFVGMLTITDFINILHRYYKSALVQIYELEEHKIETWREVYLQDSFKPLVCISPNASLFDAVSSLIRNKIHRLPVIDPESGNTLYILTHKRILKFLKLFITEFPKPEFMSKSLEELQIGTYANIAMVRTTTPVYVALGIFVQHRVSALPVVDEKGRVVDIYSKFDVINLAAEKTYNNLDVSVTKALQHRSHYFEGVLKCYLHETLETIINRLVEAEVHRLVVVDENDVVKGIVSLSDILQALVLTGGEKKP
T1 sequence (Q13131 whole entry): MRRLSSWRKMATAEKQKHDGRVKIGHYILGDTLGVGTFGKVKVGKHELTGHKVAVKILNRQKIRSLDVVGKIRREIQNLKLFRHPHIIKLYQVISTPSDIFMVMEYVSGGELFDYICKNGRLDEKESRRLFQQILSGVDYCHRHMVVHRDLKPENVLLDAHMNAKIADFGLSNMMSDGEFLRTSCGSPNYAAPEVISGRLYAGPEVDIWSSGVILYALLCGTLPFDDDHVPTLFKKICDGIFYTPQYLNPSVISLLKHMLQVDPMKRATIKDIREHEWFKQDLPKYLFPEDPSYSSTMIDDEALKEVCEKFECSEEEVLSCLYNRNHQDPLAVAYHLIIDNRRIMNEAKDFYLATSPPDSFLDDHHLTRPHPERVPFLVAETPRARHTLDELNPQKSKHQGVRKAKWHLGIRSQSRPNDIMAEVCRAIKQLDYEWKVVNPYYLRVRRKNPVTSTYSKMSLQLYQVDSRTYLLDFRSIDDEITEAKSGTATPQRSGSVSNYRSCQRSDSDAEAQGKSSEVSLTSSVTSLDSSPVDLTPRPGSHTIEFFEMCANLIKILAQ
T1 sequence (O43741 whole entry partner): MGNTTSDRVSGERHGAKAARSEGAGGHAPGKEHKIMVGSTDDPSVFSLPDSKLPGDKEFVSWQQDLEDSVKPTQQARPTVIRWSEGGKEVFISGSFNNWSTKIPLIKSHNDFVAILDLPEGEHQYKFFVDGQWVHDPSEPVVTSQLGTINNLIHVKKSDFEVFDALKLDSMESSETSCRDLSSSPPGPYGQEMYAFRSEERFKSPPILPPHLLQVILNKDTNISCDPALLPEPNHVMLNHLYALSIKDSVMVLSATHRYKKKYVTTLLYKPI
Description: (§1) Cell lysates (140, 500 and 2000 μg of lysate protein for γ1, γ2 and γ3 respectively) were incubated with 100 μl of EZview Red anti-FLAG M2 affinity gel, immunoprecipitated and washed as described previously. The IPs were resuspended in 100 μl of Hepes assay buffer and incubated in an orbital incubator with PP1γ (55 μg in 10 μl) in Hepes assay buffer for 30 min at 30°C. The dephosphorylation reactions were stopped by washing the IPs three times in Hepes assay buffer. The precipitates were then resuspended in 1 ml of Hepes assay buffer and divided into 100-μl aliquots. After centrifugation, 75 μl of each supernatant was removed, 5 μl of okadaic acid (final concentration 25 μM) was added and incubation continued for 5 min at 30°C. After this, AMP or ADP and LKB1 were added as specified and the reaction started by adding a mixture of MgCl2 (final concentration 9.8 mM) and ATP (final concentration 5 mM). Incubation was for 10 min at 30°C, after which the reactions were stopped by washing the IPs three times in Hepes assay buffer. They were resuspended in 400 μl of assay buffer and split for assays and analysis by Western blotting.
(§2) We next tested whether AMP promoted Thr^172 phosphorylation by LKB1, using complexes containing γ1, γ2 or γ3 expressed in HEK-293 cells and isolated using anti-FLAG antibody. The IPs were treated with the protein phosphatase-1 catalytic subunit (PP1γ) to remove phosphate from Thr^172, were washed to remove PP1γ, and okadaic acid was added to block the activity of any residual phosphatase. They were then treated with limiting quantities of LKB1 in the presence of 5 mM ATP (to mimic physiological conditions), with or without 1 mM AMP.
(§3) Figure 5 Effect of AMP on activation and Thr^172 phosphorylation of AMPK-γ isoforms induced by upstream kinases (A) Effect of a limiting quantity of LKB1, with or without AMP (1 mM), on AMPK activity. Anti-FLAG IPs from AMPK-γ1-, -γ2- or -γ3-expressing cells were treated with PP1γ to bring about complete dephosphorylation of Thr^172. PP1γ was removed by washing and okadaic acid was added to ensure complete inhibition of any residual phosphatase. The IPs were then incubated for 10 min with 5 mM ATP with or without LKB1 (1 μg) and with or without 1 mM AMP. […] (B) Effect of different concentrations of AMP on activation and Thr^172 phosphorylation of the AMPK-γ1 complex. Experiment as in (A) except using various concentrations of AMP in the presence of 5 mM ATP. Results in the upper panel (means ± S.E.M., n=6) are expressed relative to the control without AMP. Results were fitted to the equation: Y=1+[(activation–1) × X]/(EC50+X), where Y is the relative activity, X is the concentration of AMP, activation is the predicted maximal activation, and EC50 is the concentration of AMP causing half-maximal activation. The continuous line is the curve generated using this equation with the parameters quoted in the text. […] (C) As (A), except that we also tested the effects of 1 mM AMP on activation by CaMKKβ as well as LKB1. The amount of CaMKKβ added (0.34 μg) yielded a similar limited degree of activation to LKB1.
(§4) Figure 6 Effect of ADP on activation and Thr^172 phosphorylation of AMPK-γ isoforms induced by upstream kinases (A) Effect of AMP or ADP on activation of γ1-, γ2- or γ3-containing AMPK complexes induced by LKB1 in the presence of 5 mM ATP. Dephosphorylated AMPK complexes were generated as in Figure 3(A) and were incubated for 10 min with LKB1 with or without AMP (300 μM), ADP (1 mM) or the 5′-nucleotidase CD73 (0.86 μg). […] (B) Duplicate blots from the experiment shown in (A). (C) Effect of ADP on activation of AMPK-γ1 complexes by LKB1 in the presence of 5 mM ATP. The experiment was performed as in (A) except with various concentrations of ADP. Results (means ± S.E.M., n=3) are expressed relative to the basal activity in the absence of ADP and were fitted to the equation used for Figure 3(B). […]

[2] = tested on: AMPK γ1 complex (dephosphorylated, FLAG-tagged human γ1); experiment: as above; type: biochemical; settings: 5 mM ATP, imprecise estimate, read-out: IC50 for the inhibitory effect on activation by LKB1
Description: as §1, §2, §3, §4

[3] = molecular target: T2, AMPK γ2 complex (dephosphorylated, FLAG-tagged human γ2) (Homo sapiens, UniProt Q13131+Q9UGJ0); experiment: as above; type: biochemical; settings: ADP 1 mM, 5 mM ATP
T2 construct: would have predominantly been the α1β2γ1, α1β2γ2 or α1β2γ3 complexes; expressed in transfected cells; host or cells: HEK-293 (Flp recombinase target site, tetracycline-inducible); anti-FLAG immunoprecipitate
T2 sequence (Q9UGJ0 whole entry): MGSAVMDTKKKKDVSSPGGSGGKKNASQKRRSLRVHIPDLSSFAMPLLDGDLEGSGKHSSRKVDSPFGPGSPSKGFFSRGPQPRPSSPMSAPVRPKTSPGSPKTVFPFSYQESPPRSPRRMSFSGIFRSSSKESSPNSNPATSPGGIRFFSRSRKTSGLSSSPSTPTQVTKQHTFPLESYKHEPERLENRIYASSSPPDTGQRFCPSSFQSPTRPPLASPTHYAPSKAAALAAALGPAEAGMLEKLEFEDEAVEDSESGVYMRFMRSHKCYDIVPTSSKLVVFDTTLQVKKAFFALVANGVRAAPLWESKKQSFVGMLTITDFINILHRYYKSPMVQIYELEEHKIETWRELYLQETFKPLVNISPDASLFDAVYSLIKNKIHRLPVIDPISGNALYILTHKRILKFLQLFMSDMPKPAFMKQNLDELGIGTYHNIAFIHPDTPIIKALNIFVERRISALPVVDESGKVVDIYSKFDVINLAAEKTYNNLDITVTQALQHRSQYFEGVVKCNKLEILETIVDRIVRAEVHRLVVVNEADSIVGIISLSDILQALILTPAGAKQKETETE
T2 sequence (Q13131 whole entry): as the sequence (Q13131 whole entry) above
T2 sequence (O43741 whole entry partner): as the sequence (O43741 whole entry partner) above
Description: as §1, §2, §3, §4

[4] = molecular target: T3, AMPK γ3 complex (dephosphorylated, FLAG-tagged human γ3) (Homo sapiens, UniProt Q13131+Q9UGI9); experiment: as above; type: biochemical; settings: ADP 1 mM, 5 mM ATP
T3 construct: would have predominantly been the α1β2γ1, α1β2γ2 or α1β2γ3 complexes; expressed in transfected cells; host or cells: HEK-293 (Flp recombinase target site, tetracycline-inducible); anti-FLAG immunoprecipitate
T3 sequence (Q9UGI9 whole entry): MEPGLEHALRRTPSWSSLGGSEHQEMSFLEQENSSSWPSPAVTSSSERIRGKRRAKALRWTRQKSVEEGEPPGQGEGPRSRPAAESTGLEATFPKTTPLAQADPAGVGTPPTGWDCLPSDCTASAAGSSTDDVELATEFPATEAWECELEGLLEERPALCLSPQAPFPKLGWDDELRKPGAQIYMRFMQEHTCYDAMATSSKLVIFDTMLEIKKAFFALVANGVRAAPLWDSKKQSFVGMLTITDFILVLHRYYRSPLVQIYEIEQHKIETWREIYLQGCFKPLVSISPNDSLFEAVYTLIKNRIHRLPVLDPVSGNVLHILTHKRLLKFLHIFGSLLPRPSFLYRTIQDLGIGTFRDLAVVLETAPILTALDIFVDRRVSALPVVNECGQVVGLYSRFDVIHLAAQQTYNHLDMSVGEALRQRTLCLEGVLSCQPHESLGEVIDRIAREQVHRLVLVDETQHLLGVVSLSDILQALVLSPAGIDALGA
T3 sequence (Q13131 whole entry): as the sequence (Q13131 whole entry) above
T3 sequence (O43741 whole entry partner): as the sequence (O43741 whole entry partner) above
Description: as §1, §2, §3, §4

[5] = molecular target: T4, AMPK γ1 complex (FLAG-tagged human γ1) (Homo sapiens, UniProt P54619+Q13131); experiment: Protection against inactivation and Thr172 dephosphorylation by PP2Cα; type: biochemical; settings: 5 mM ATP, read-out: half-maximal effect for protection against inactivation by PP2Cα
T4 construct: would have predominantly been the α1β2γ1, α1β2γ2 or α1β2γ3 complexes; expressed in transfected cells; host or cells: HEK-293 (Flp recombinase target site, tetracycline-inducible); anti-FLAG immunoprecipitate
T4 sequence (P54619 whole entry): as the sequence (P54619 whole entry) above
T4 sequence (Q13131 whole entry): as the sequence (Q13131 whole entry) above
T4 sequence (O43741 whole entry partner): as the sequence (O43741 whole entry partner) above
Description: (§5) AMPK was activated by incubating the cells in phenformin (10 mM) for 60 min prior to cell lysis. Cell lysates (225, 225 and 455 μg of lysate protein for γ1, γ2 and γ3 respectively) were incubated with 100 μl of EZview Red anti-FLAG M2 affinity gel beads at 4°C for 2 h on a roller mixer. The beads were washed twice with 1 ml of immunoprecipitation buffer and twice with 1 ml of Hepes assay buffer, resuspended in 1 ml of assay buffer and divided into 100-μl aliquots. The beads were recovered by centrifugation and 75 μl of the supernatant removed. In a final volume of 50 μl, AMP, ADP (as specified), ATP (5 mM) and PP2Cα (1.5 μg) were added and the reaction was started by adding MgCl2 (9.8 mM) to activate PP2Cα; the reactions were then conducted in a shaking incubator at 30°C for 10 min. They were stopped by washing the beads three times in assay buffer, resuspending them in 400 μl of assay buffer and dividing them into aliquots for kinase assays and analysis by Western blotting.
(§6) Finally, we addressed the effects of AMP and ADP on the dephosphorylation of γ1, γ2 and γ3 complexes by the protein phosphatase PP2Cα. Cells expressing γ1, γ2 or γ3 complexes were treated with phenformin to promote Thr^172 phosphorylation, the complexes were then isolated by immunoprecipitation and equal amounts (based on anti-FLAG blots) were treated with a limiting quantity of PP2Cα in the presence of increasing concentrations of AMP or ADP. As before, in order to simulate physiological conditions, these assays were performed in the presence of 5 mM ATP. […] The similar effects of AMP on all three complexes were confirmed by Western blot analysis using anti-pThr^172 antibodies (lower panel). The effects of ADP are shown in Figure 7(B); similar to results previously obtained with rat liver AMPK [28]
(§7) Figure 7 Effect of AMP and ADP on protection against Thr^172 dephosphorylation, measured at 5 mM ATP (A) […], -γ2 or -γ3 complexes were immunoprecipitated from cells treated with phenformin to cause maximal Thr^172 phosphorylation. The IPs were then incubated for 10 min with the protein phosphatase PP2Cα in the presence of 5 mM ATP and various concentrations of AMP. Inactivation was assessed by kinase assays (top panel) and Thr^172 dephosphorylation by Western blot (bottom panels). Results (means ± S.E.M., n=2) in the top panel are shown as percentage protection, which is the inactivation compared with control (without AMP), expressed as a percentage of the inactivation compared with control at the highest concentration of AMP used. Results were fitted to the equation Y=100 × X/(EC50+X) where Y is the percentage protection, X is the concentration of AMP, and EC50 is the concentration of AMP causing half-maximal protection. The continuous lines are the curves generated using this equation using the best-fit parameters quoted in the text. […] (B) As (A), but varying ADP in place of AMP.

[6] = molecular target: T5, AMPK γ2 complex (FLAG-tagged human γ2) (Homo sapiens, UniProt Q13131+Q9UGJ0); experiment: as above; type: biochemical; settings: 5 mM ATP, read-out: half-maximal effect for protection against inactivation by PP2Cα
T5 construct: would have predominantly been the α1β2γ1, α1β2γ2 or α1β2γ3 complexes; expressed in transfected cells; host or cells: HEK-293 (Flp recombinase target site, tetracycline-inducible); anti-FLAG immunoprecipitate
T5 sequence (Q9UGJ0 whole entry): as the sequence (Q9UGJ0 whole entry) above
T5 sequence (Q13131 whole entry): as the sequence (Q13131 whole entry) above
T5 sequence (O43741 whole entry partner): as the sequence (O43741 whole entry partner) above
Description: as §5, §6, §7

[7] = molecular target: T6, AMPK γ3 complex (FLAG-tagged human γ3) (Homo sapiens, UniProt Q13131+Q9UGI9); experiment: as above; type: biochemical; settings: 5 mM ATP, read-out: half-maximal effect for protection against inactivation by PP2Cα
T6 construct: would have predominantly been the α1β2γ1, α1β2γ2 or α1β2γ3 complexes; expressed in transfected cells; host or cells: HEK-293 (Flp recombinase target site, tetracycline-inducible); anti-FLAG immunoprecipitate
T6 sequence (Q9UGI9 whole entry): as the sequence (Q9UGI9 whole entry) above
T6 sequence (Q13131 whole entry): as the sequence (Q13131 whole entry) above
T6 sequence (O43741 whole entry partner): as the sequence (O43741 whole entry partner) above
Description: as §5, §6, §7

[8] = tested on: γ1-containing AMPK complexes in HEK-293 cells expressing FLAG–γ1; parameters: method as in PMID 25695398; settings: anti-FLAG IP; cited from earlier work
[9] = tested on: γ2-containing AMPK complexes in HEK-293 cells expressing FLAG–γ2; parameters: method as in PMID 25695398; settings: anti-FLAG IP; cited from earlier work
[10] = tested on: γ3-containing AMPK complexes in HEK-293 cells expressing FLAG–γ3; parameters: method as in PMID 25695398; settings: anti-FLAG IP; cited from earlier work
[11] = tested on: γ1-containing AMPK complexes in mouse skeletal muscle; parameters: method as in PMID 25695398; settings: cited from earlier work
[12] = tested on: γ3-containing AMPK complexes in mouse skeletal muscle; parameters: method as in PMID 25695398; settings: cited from earlier work
glucose uptake = tested on: glucose uptake; parameters: method as in PMID 25695398; settings: mouse skeletal muscle; cited from earlier work

| EC50 ([1]; imprecise estimate, read-out: EC50 for the activating effect on activation by LKB1) | stimulation of activation caused by Thr172 phosphorylation by LKB1 ([1]; ADP) [fold] | activation (best-fit, promotion of activation by LKB1) ([1]; various ADP, constrained to be 5-fold or less, confidence limits extremely wide) [fold] | IC50 [2] [mM] | effect on activation by LKB1 [3] | effect on activation by LKB1 [4] | EC50 [5] [µM] | EC50 [6] [µM] | EC50 [7] [µM] | SMILES | activation of complex in HEK-293 cells [8] | activation of complex in HEK-293 cells [9] | activation of complex in HEK-293 cells [10] | activation of γ1-containing complexes [11] | activation of γ3-containing complexes [12] | glucose uptake (glucose uptake) |
| --- | --- | --- | --- | --- | --- | --- | --- | --- | --- | --- | --- | --- | --- | --- | --- |
| 1.8 mM and ≥ 1 mM | ~2 | 5 | 6.8 ± 3.1 | not significant | not significant | 910 ± 70 | 180 ± 20 | 980 ± 150 | Nc1ncnc2c1ncn2[C@@H]1O[C@H](COP(=O)(O)OP(=O)(O)O)[C@@H](O)[C@H]1O [ADP] | – | – | – | – | – | – |
| – | – | – | – | – | – | – | – | – | Cc1cc(-c2ccc(/C=C3/SC(=Nc4ccc(Cl)c(C(=O)O)c4)NC3=O)o2)c([N+](=O)[O-])cc1C [PT-1] | all three complexes were activated | all three complexes were activated | all three complexes were activated | activates | not | did not promote glucose uptake |
